From article PMC4365786 (Chemistry & biology, 2015)

Assays:
[1] = tested on: HCT116 cells; assay: Cell viability assay; assay type: cell-based; details: Homo sapiens, HCT-116, 96 h, read-out: IC50 for killing HCT116 cells
[2] = tested on: histone acetylation (H3K18ac) in HCT116 cells; assay: Drug washout, histone acetylation by Western blotting; assay type: cell-based; details: 6 h pulse then washout, time counted from drug addition
[3] = tested on: acetylated histones in HCT116 cells; assay: Western blotting of histone acetylation after 1 h exposure; assay type: cell-based; details: TSA 0.2 μM, other compounds 2 μM
[4] = tested on: MDA-MB-231 cells; assay: Cell cycle analysis by FACS; assay type: cell-based; details: MDA-MB-231, 24 h exposure
[5] = tested on: HepG2 cells; assay: Cell viability assay; assay type: cell-based; details: CellTiter-Glo, 96 h
[6] = tested on: α-tubulin acetylation in HCT116 and A549 cells; assay: Western blotting of α-tubulin acetylation; assay type: cell-based; details: TSA 0.2 μM, UF010 2 μM, 1 h before lysis
[7] = molecular target: HDAC2 (Homo sapiens, UniProt Q92769); assay: HDAC2 inhibition kinetics; assay type: biochemical; details: purified HDAC2
Chain of HDAC2 (Q92769 whole entry): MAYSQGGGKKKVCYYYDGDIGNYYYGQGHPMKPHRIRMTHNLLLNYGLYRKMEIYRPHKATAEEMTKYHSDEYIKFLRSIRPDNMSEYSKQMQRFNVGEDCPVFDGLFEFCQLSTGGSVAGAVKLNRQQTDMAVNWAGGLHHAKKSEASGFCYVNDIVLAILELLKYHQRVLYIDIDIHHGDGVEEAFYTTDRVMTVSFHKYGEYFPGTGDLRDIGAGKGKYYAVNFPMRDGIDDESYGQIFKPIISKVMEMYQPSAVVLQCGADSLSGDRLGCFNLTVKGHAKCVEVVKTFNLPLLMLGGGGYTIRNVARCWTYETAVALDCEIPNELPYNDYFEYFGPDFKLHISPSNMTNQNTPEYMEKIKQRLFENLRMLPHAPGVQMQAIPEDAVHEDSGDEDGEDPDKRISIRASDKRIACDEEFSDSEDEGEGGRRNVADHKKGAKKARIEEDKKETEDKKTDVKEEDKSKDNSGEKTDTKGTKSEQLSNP

[8] = tested on: MDA-MB-231 cells; assay: Wound healing cell migration assay; assay type: cell-based; details: MDA-MB-231 monolayer scratch; UF010 at 1 μM
[9] = tested on: HDACs in HCT116; assay type: cell-based; details: HCT116 (Fig. 2C) and HepG2 cells (data not shown)
[10] = bovine, serum
[11] = tested on: Sin3 complex; assay: Inhibition of the Sin3 complex; details: data not shown
[12] = tested on: MDA-MB-231 cells; assay: Cell viability assay; assay type: cell-based; details: read-out: IC50 viability MDA-MB-231, CellTiter-Glo, 96 h (Fig. 3C)

SMILES | time up to which induced histone acetylation was maintained [2] | induction of histone acetylation [3] | effect on cell cycle progression [4] | effect on α-tubulin acetylation [6] | further results
Nc1ccccc1NC(=O)c1ccc(CNC(=O)OCc2cccnc2)cc1 [MS-275, entinostat] | at least 48 h | only slightly induced acetylation at several sites but failed to induce acetylation at most sites |  |  | IC50 [1]: 2.1 µM
C/C=C1\NC(=O)[C@H]2CSSCC/C=C/[C@H](CC(=O)N[C@H](C(C)C)C(=O)N2)OC(=O)[C@H](C(C)C)NC1=O [Romi-depsin, romidepsin] | up to 24 h |  |  |  | 
O=C(CCCCCCC(=O)Nc1ccccc1)NO [SAHA, vorinostat, reference compound] |  |  | inhibited G1/S progression at 1 μM but induced a strong G2/M block at 10 μM |  | 
CCCCNNC(=O)c1ccc(N(C)C)cc1 [SR-3208] |  |  |  |  | fold more potent than UF010 in eliciting cytotoxicity [5]: 3 fold
CC(/C=C/C(=O)NO)=C\[C@@H](C)C(=O)c1ccc(N(C)C)cc1 [TSA, trichostatin A, reference compound] |  | strongly induced acetylation at some sites but weakly at other sites |  | dramatically increased | 
CCCCNNC(=O)c1ccc(Br)cc1 [UF010] | up to 96 h | consistently induced the accumulation of acetylated histones at all sites | mainly blocked G1/S transition | had no effect | mechanism of HDAC2 inhibition vs. substrate [7]: competitive inhibitor; effect on cell migration [8]: markedly slowed migration; fold more potent than MS-275 against HDACs in cells [9]: about 5 fold; half-life in cell culture medium [10]: 15.8 h; inhibition of the Sin3 complex [11]: can inhibit; IC50 [12]: 29.1 µM
